Source: patent publication US10526389B2, “Peptides and combinations of peptides for use in immunotherapy against lung cancer, including NSCLC and other cancers” (Immatics Biotechnologies GmbH, priority 2015, dated 2020)

Tested on: CD8+ T cells
Assay: In vitro immunogenicity of HLA-A*24 peptides (CD8+ T-cell priming with aAPCs, multimer staining)
Format: cell-based, human
Protocol: In order to obtain information regarding the immunogenicity of the TUMAPs of the present invention, the inventors performed investigations using an in vitro T-cell priming assay based on repeated stimulations of CD8+ T cells with artificial antigen presenting cells (aAPCs) loaded with peptide/MHC complexes and anti-CD28 antibody.
Generation of pMHC/anti-CD28 coated beads, T-cell stimulations and readout was performed in a highly defined in vitro system using four different pMHC molecules per stimulation condition and 8 different pMHC molecules per readout condition.
The purified co-stimulatory mouse IgG2a anti human CD28 Ab 9.3 (Jung et al., 1987) was chemically biotinylated using Sulfo-N-hydroxysuccinimidobiotin as recommended by the manufacturer (Perbio, Bonn, Germany). Beads used were 5.6 μm diameter streptavidin coated polystyrene particles (Bangs Laboratories, Illinois, USA).
800.000 beads/200 μl were coated in 96-well plates in the presence of 4×12.5 ng different biotin-pMHC, washed and 600 ng biotin anti-CD28 were added subsequently in a volume of 200 μl. Stimulations were initiated in 96-well plates by co-incubating 1×10^6 CD8+ T cells with 2×10^5 washed coated beads in 200 μl TCM supplemented with 5 ng/ml IL-12 (PromoCell) for 3 days at 37° C. Half of the medium was then exchanged by fresh TCM supplemented with 80 U/ml IL-2 and incubating was continued for 4 days at 37° C. This stimulation cycle was performed for a total of three times. For the pMHC multimer readout using 8 different pMHC molecules per condition, a two-dimensional combinatorial coding approach was used as previously described (Andersen et al., 2012) with minor modifications encompassing coupling to 5 different fluorochromes. Finally, multimeric analyses were performed by staining the cells with Live/dead near IR dye (Invitrogen, Karlsruhe, Germany), CD8-FITC antibody clone SK1 (BD, Heidelberg, Germany) and fluorescent pMHC multimers. For analysis, a BD LSRII SORP cytometer equipped with appropriate lasers and filters was used. Peptide specific cells were calculated as percentage of total CD8+ cells. Evaluation of multimeric analysis was done using the FlowJo software (Tree Star, Oregon, USA). In vitro priming of specific multimer+CD8+ lymphocytes was detected by comparing to negative control stimulations.
Exemplary flow cytometry results after TUMAP-specific multimer staining for 3 peptides of the invention are shown in FIGS. 3A-3E together with corresponding negative controls.

Row | Substance | in vitro immunogenicity: donors | in vitro immunogenicity: wells
1 | RYLDSLKAIVF (listed as Homo sapiens) [SEQ ID No. 28] | ++++ (>= 70% = ++++) | + (<20% = +)
2 | RYLEKFYGL (listed as Homo sapiens) [SEQ ID No. 26] | ++++ (>= 70% = ++++) | + (<20% = +)
3 | RYTLHINTL (listed as Homo sapiens) [SEQ ID No. 43] | ++ (20%-49% = ++) | + (<20% = +)
4 | SAMD9L-001 (IYQRWKDLL; listed as Homo sapiens) | +++ (50%-69% = +++) | + (<20% = +)
5 | SLC-003 (RYFPTQALNF; listed as Homo sapiens) | + (<20% = +) | + (<20% = +)
6 | SMPDL3B-001 (IYNQIAELW; listed as Homo sapiens) | ++++ (>= 70% = ++++) | ++ (20%-49% = ++)
7 | SP14-001 (AYPDLNEIYRSF; listed as Homo sapiens) | + (<20% = +) | + (<20% = +)
8 | TPS-001 (IYTRVTYYL; listed as Homo sapiens) | ++++ (>= 70% = ++++) | ++ (20%-49% = ++)
9 | TRIM11-001 (IFLDYEAGHLSF; listed as Homo sapiens) | + (<20% = +) | + (<20% = +)
10 | TRPM2-001 (VYHSYLTIF; listed as Homo sapiens) | ++++ (>= 70% = ++++) | ++ (20%-49% = ++)
11 | TTC13-001 (RYLEYFEKI; listed as Homo sapiens) | ++++ (>= 70% = ++++) | +++ (50%-69% = +++)
12 | TUBGCP3-001 (FYQGIVQQF; listed as Homo sapiens) | ++ (20%-49% = ++) | + (<20% = +)
13 | TYKYVDINTF (listed as Homo sapiens) [SEQ ID No. 159] | +++ (50%-69% = +++) | + (<20% = +)
14 | TYNPEIYVI (listed as Homo sapiens) [SEQ ID No. 35] | ++++ (>= 70% = ++++) | ++ (20%-49% = ++)
15 | VFMKDGFFYF (listed as Homo sapiens) [SEQ ID No. 34] | ++ (20%-49% = ++) | + (<20% = +)
16 | VYTSWQIPQKF (listed as Homo sapiens) [SEQ ID No. 23] | + (<20% = +) | + (<20% = +)
17 | XPR-001 (VYPLALYGF; listed as Homo sapiens) | ++++ (>= 70% = ++++) | ++ (20%-49% = ++)
18 | YYTKGFALLNF (listed as Homo sapiens) [SEQ ID No. 29] | +++ (50%-69% = +++) | + (<20% = +)
19 | ZBED5-001 (AYKDKDISFF; listed as Homo sapiens) | ++++ (>= 70% = ++++) | + (<20% = +)
20 | ZNF697-001 (TYLTNHLRL; listed as Homo sapiens) | ++++ (>= 70% = ++++) | ++ (20%-49% = ++)
